Assay type in all cases: cell-based
For experiment [1], the system named is Streptococcus faecalis 5432. Kind of experiment: serial dilution liquid medium MIC, Streptococcus faecalis 5432. The settings on record: Enterococcus faecalis, 24 hours at 37° C., read-out: minimum inhibiting concentration (MIC). The procedure:
(§1) The method was a serial dilution of liquid medium test wherein a series of tubes were prepared containing the same amount of sterile nutritive medium and increasing amounts of the test product was distributed in each tube. The tubes were then seeded with a bacterial strain and incubated for 24 hours in an oven at 37° C. The degree of inhibition was determined by transillumination to determine the minimum inhibiting concentration (MIC) express in μg/ml and the results are reported in the following Tables.

For experiment [2], the system named is Staphylococcus aureus 1061. Kind of experiment: serial dilution liquid medium MIC, Staphylococcus aureus 1061 pen-sensibles. The settings on record: 24 hours at 37° C., read-out: minimum inhibiting concentration (MIC). The procedure: as §1
For experiment [3], the system named is Streptococcus pyogenes A 561. Kind of experiment: serial dilution liquid medium MIC, Streptococcus pyogenes A 561. Particulars: A561, 24 hours at 37° C., read-out: minimum inhibiting concentration (MIC). The procedure:
as §1

Experiment [4] has as its system Staphylococcus aureus exp. n° 54 146. In words: serial dilution liquid medium MIC, Staphylococcus aureus exp. n° 54 146. Particulars: Staphylococcus aureus exp. 54 146; 24 hours at 37° C.; read-out: minimum inhibiting concentration (MIC). On the procedure:
as §1

Experiment [5] relates to Streptococcus faecalis 99 F 74. Kind of experiment: serial dilution liquid medium MIC, Streptococcus faecalis 99 F 74. Particulars: Enterococcus faecalis, 99F74, 24 hours at 37° C., read-out: minimum inhibiting concentration (MIC). On the procedure:
as §1

Experiment [6] has as its system Staphylococcus aureus UC 1128. Kind of experiment: serial dilution liquid medium MIC, Staphylococcus aureus UC 1128 pen-resistant. The settings on record: UC1128; Staphylococcus aureus UC 1128 pen-resistant; 24 hours at 37° C.; read-out: minimum inhibiting concentration (MIC). On the procedure:
as §1

Experiment [7] relates to Streptococcus faecalis 5435. Kind of experiment: serial dilution liquid medium MIC, Streptococcus faecalis 5435. The settings on record: Enterococcus faecalis, 24 hours at 37° C., read-out: minimum inhibiting concentration (MIC). The procedure: as §1

The structures appear in SMILES notation. Values after ≈ are worked out from the molar mass of the structure shown.

For the molecule `CCSCC(O)CON=C1[C@H](C)C[C@@](C)(O)[C@H](O[C@@H]2O[C@H](C)C[C@H](N(C)C)[C@H]2O)[C@@H](C)[C@H](O[C@H]2C[C@@](C)(OC)[C@@H](O)[C@H](C)O2)[C@@H](C)C(=O)O[C@H](CC)[C@@](C)(O)[C@H](O)[C@H]1C` (stereo partly drawn) [Example 16, 9-[0-(3-ethylthio-2-hydroxy-propyl)-oxime] of erythromycin], the MIC in experiment [1] is 0.2 µg/mL (≈ 0.231 µM); in experiment [2], 0.4 µg/mL (≈ 0.461 µM); in experiment [3], 0.05 µg/mL (≈ 0.0577 µM); in experiment [4], 0.4 µg/mL (≈ 0.461 µM); in experiment [5], 0.1 µg/mL (≈ 0.115 µM); in experiment [6], 0.6 µg/mL (≈ 0.692 µM). For the same molecule, the MIC in experiment [7] amounted to 1 µg/mL (≈ 1.15 µM).

Turning to `CC[C@H]1OC(=O)[C@H](C)[C@@H](O[C@H]2C[C@@](C)(OC)[C@@H](O)[C@H](C)O2)[C@H](C)[C@@H](O[C@@H]2O[C@H](C)C[C@H](N(C)C)[C@H]2O)[C@](C)(O)C[C@@H](C)C(=NOCCOCCO)[C@H](C)[C@@H](O)[C@]1(C)O` [Example 17, 9-[0-(2-{2-hydroxyethoxy}-ethyl)-oxime] of erythromycin], the MIC in experiment [1] was determined as 0.1 µg/mL (≈ 0.119 µM); in experiment [2] it was 0.4 µg/mL (≈ 0.478 µM); in experiment [3], 0.05 µg/mL (≈ 0.0597 µM); in experiment [4], 0.4 µg/mL (≈ 0.478 µM); in experiment [5] it was 0.1 µg/mL (≈ 0.119 µM); in experiment [6] it was 0.6 µg/mL (≈ 0.717 µM). For the same molecule, in experiment [7], the MIC came out at 0.6 µg/mL (≈ 0.717 µM).

Take `CC[C@H]1OC(=O)[C@H](C)[C@@H](O[C@H]2C[C@@](C)(OC)[C@@H](O)[C@H](C)O2)[C@H](C)[C@@H](O[C@@H]2O[C@H](C)C[C@H](N(C)C)[C@H]2O)[C@](C)(O)C[C@@H](C)C(=NOCOCCN)[C@H](C)[C@@H](O)[C@]1(C)O` [Example 24, 9-[0-{(2-aminoethoxy}-methyl)-oxime] of erythromycin]: the MIC in experiment [1] was 0.05 µg/mL (≈ 0.0608 µM); in experiment [2] it was 0.1 µg/mL (≈ 0.122 µM); in experiment [3] it was at most 0.01 µg/mL; in experiment [4], 0.4 µg/mL (≈ 0.487 µM); in experiment [5], 0.1 µg/mL (≈ 0.122 µM); in experiment [6] it was 0.4 µg/mL (≈ 0.487 µM). Moreover, the MIC in experiment [7] was 0.2 µg/mL (≈ 0.243 µM).

Take `CC[C@H]1OC(=O)[C@H](C)[C@@H](O[C@H]2C[C@@](C)(OC)[C@@H](O)[C@H](C)O2)[C@H](C)[C@@H](O[C@@H]2O[C@H](C)C[C@H](N(C)C)[C@H]2O)[C@](C)(O)C[C@@H](C)C(=NOCCNC(C)C)[C@H](C)[C@@H](O)[C@]1(C)O` [Example 39, 9-[O-(2-isopropylamino)-oxime] of erythromycin]: the MIC in experiment [1] was 0.05 µg/mL (≈ 0.0599 µM); in experiment [2] it was 0.3 µg/mL (≈ 0.36 µM); in experiment [3] it was 0.01 µg/mL (≈ 0.012 µM); in experiment [4], 0.4 µg/mL (≈ 0.48 µM); in experiment [5] it was at most 0.02 µg/mL; in experiment [6], 0.6 µg/mL (≈ 0.719 µM). In addition, the MIC in experiment [7] was 0.1 µg/mL (≈ 0.12 µM).

For the molecule `CC[C@H]1OC(=O)[C@H](C)[C@@H](O[C@H]2C[C@@](C)(OC)[C@@H](O)[C@H](C)O2)[C@H](C)[C@@H](O[C@@H]2O[C@H](C)C[C@H](N(C)C)[C@H]2O)[C@](C)(O)C[C@@H](C)C(=NOCC2CO2)[C@H](C)[C@@H](O)[C@]1(C)O` (stereo partly drawn) [Example 47, 9-[0-(oxiramylmethyl)-oxime] of erythromycin], the MIC in experiment [1] is 0.2 µg/mL (≈ 0.248 µM); in experiment [2], 0.2 µg/mL (≈ 0.248 µM); in experiment [3] it was 0.05 µg/mL (≈ 0.0621 µM); in experiment [4] it was 0.4 µg/mL (≈ 0.497 µM); in experiment [5], 0.2 µg/mL (≈ 0.248 µM); in experiment [6] it was 0.4 µg/mL (≈ 0.497 µM). For the same molecule, the MIC in experiment [7] was determined as 0.2 µg/mL (≈ 0.248 µM).

As for `CC[C@H]1OC(=O)[C@H](C)[C@@H](O[C@H]2C[C@@](C)(OC)[C@@H](O)[C@H](C)O2)[C@H](C)[C@@H](O[C@@H]2O[C@H](C)C[C@H](N(C)C)[C@H]2O)[C@](C)(O)C[C@@H](C)C(=NOC(C)CN(CC)CC)[C@H](C)[C@@H](O)[C@]1(C)O` (stereo partly drawn) [Example 46, 9-[O-(2-diethylamino-isopropyl)-oxime] of erythromycin], the MIC in experiment [1] is 0.05 µg/mL (≈ 0.058 µM); in experiment [2] it was 0.2 µg/mL (≈ 0.232 µM); in experiment [3], at most 0.01 µg/mL; in experiment [4], 0.4 µg/mL (≈ 0.464 µM); in experiment [5], 0.05 µg/mL (≈ 0.058 µM); in experiment [6], 0.6 µg/mL (≈ 0.696 µM). In addition, the MIC in experiment [7] is 0.1 µg/mL (≈ 0.116 µM).

These data come from US4349545A, “Novel erythromycin a derivatives” (Roussel Uclaf, priority 1980, dated 1982).
